Data taken from patent US12293809B2, “Workflow for generating compounds with biological activity against a specific biological target” (INSILICO MEDICINE IP LIMITED, priority 2019, dated 2025).
“Also recorded” adds a separate entry of the source.

Assays:
[1] = target: T1, hDDR1 (Homo sapiens, UniProt Q08345); assay: KinaseProfiler radiometric biochemical kinase assay (Eurofins); set-up: purchased Eurofins 14-942KP10; settings: for IC50: read-out: IC50, inhibition of DDR1 activity
Protocol: The experimental procedures were performed by Eurofins. The activity of the molecules against hDDR1 and hDDR2 kinases was assessed using KinaseProfiler^67. […] The enzymatic reaction processed in the presence of Mg^2+ cations and ATP at room temperature for 40 minutes and terminated by addition of phosphoric acid. […] All the compounds were prepared in 100% DMSO. […] The biological evaluation of selectivity against non-target kinases was performed in Dundee Eurofins, using Scan Max Delta Panel [10 μM ATP] KinaseProfiler^68.

[2] = target: T1, hDDR1; assay: Rescreen in another biochemical assay (Thermo Fisher-PR6913A); settings: read-out: IC50 towards DDR1 kinase, rescreen
Protocol: In the present example, six molecules were generated, selected, and synthesized and were submitted for biological testing (e.g., within 35 days). […] Since the dose-response curves for Compounds 2 and 4 seemed likely inconsistent, additional experiments were performed to confirm the activity of these molecules towards DDR1 kinase (see FIG. 4B). […] Compounds 1 and 2 were also evaluated towards DDR2 kinase.
FIGS. 4A-4B show the structures and dose-response curves for the generated molecules. The six generated compounds were tested in a dose-dependent manner against DDR1 tyrosine kinase.

[3] = tested on: α-actin expression in MRC-5 cells; assay: MRC-5 fibrosis assay, TGF-β stimulated (Western blot); type: cell-based
Protocol: (§1) After 20 h growth in the reduced serum medium, the cells were treated with indicated doses of compounds for 30 minutes. Subsequently, the cells were stimulated with 10 ng/mL TGF-β (R&D Systems, 240-B-002) for 48 or 72 hours.

[4] = Microsomal stability (MLM)
Protocol: (§2) Cold acetonitrile (ACN) including 100 ng/mL Tolbutamide and 100 ng/mL Labetalol as internal standard (IS) were used for stop solution. 10 μL compound or control working solution/well was added to all plates (T0, T5, T10, T20, T30, T60, NCF60) except matrix blank. Dispense 80 μL/well microsome solution was added to every plate by Apricot, the mixture of microsome solution and compound were incubated at 37° C. for about 10 min. After pre-warming, dispense 10 μL/well NADPH regenerating system was added to every plate by Apricot to start reaction. The solution was then incubated at 37° C. 300 (μL/well) stop solution (cold in 4° C.) was added to terminate the reaction. The sampling plates were shaken for approximately 10 min. Samples were centrifuged at 4000 rpm for 20 min under 4° C. While centrifuging, 8×new 96-well plate were loaded with 300 μL HPLC water, then 100 μL supernatant was transferred and mixed for LC/MS/MS.

[5] = in vitro
Protocol: as §2

[6] = tested on: α-actin (α-SMA) production in LX-2 cells; assay: LX-2 fibrosis assay, TGF-β stimulated (Western blot); type: cell-based, human; settings: 0.5 to 10 μM
Protocol: Collagen α1, α-SMA, CTGF and GAPDH were traced using Western blot analysis.
After 20 h growth in the reduced serum medium, the cells were treated with indicated doses of compounds for 30 minutes.

[7] = tested on: collagen α1 production in LX-2 cells; assay: as above; type: cell-based, human; settings: 0.5 to 10 μM
Protocol: Collagen α1, α-SMA, CTGF and GAPDH were traced using Western blot analysis. DMSO and SB-525334 were used as negative and positive controls, respectively.
Human hepatic stellate cells LX-2 were grown in DMEM (Invitrogen, 11960) supplied with 1% MEM Non-Essential Amino Acids (Invitrogen, 11140-050), 2% fetal bovine serum (Hyclone, SV30087.03), Penicillin (100 U/mL)-streptomycin (100 μg/mL) (Millipore, TMS-AB2-C) and 2 mM L-Glutamine (Invitrogen, 25030-001). After the cells grew in 12-well plates for 24 h, the cell culture medium was changed to the same as above except using 0.4% fetal bovine serum. After 20 h growth in the reduced serum medium, the cells were treated with indicated doses of compounds for 30 minutes. Subsequently, the cells were stimulated with 4 ng/mL TGF-β (R&D Systems, 240-B-002) for 48 h. The cells were rinsed twice with DPBS before being harvested with 100 μL RIPA buffer (Sigma, R0278) supplemented with protease inhibitor cocktail (Roche, 04693132001) at 4° C. The total protein in each sample was quantified using BCA Protein Assay Kit (Pierce™, 23227) and equal amount of total protein of each sample was subject to Western blot analysis. Antibodies used were mouse anti-α-Actin (SPM332) (sc-365970), mouse anti-CTGF (E5) (sc-365970), and mouse anti-collagen al (3G3) (sc-293182), from Santa Cruz Biotechnologies; and mouse anti-GAPDH (6C5) (EMD Millipore, MAB374).

[8] = tested on: CTGF expression in MRC-5 cells; assay: MRC-5 fibrosis assay, TGF-β stimulated (Western blot); type: cell-based
Protocol: as §1

T1 sequence (Q08345 19-913): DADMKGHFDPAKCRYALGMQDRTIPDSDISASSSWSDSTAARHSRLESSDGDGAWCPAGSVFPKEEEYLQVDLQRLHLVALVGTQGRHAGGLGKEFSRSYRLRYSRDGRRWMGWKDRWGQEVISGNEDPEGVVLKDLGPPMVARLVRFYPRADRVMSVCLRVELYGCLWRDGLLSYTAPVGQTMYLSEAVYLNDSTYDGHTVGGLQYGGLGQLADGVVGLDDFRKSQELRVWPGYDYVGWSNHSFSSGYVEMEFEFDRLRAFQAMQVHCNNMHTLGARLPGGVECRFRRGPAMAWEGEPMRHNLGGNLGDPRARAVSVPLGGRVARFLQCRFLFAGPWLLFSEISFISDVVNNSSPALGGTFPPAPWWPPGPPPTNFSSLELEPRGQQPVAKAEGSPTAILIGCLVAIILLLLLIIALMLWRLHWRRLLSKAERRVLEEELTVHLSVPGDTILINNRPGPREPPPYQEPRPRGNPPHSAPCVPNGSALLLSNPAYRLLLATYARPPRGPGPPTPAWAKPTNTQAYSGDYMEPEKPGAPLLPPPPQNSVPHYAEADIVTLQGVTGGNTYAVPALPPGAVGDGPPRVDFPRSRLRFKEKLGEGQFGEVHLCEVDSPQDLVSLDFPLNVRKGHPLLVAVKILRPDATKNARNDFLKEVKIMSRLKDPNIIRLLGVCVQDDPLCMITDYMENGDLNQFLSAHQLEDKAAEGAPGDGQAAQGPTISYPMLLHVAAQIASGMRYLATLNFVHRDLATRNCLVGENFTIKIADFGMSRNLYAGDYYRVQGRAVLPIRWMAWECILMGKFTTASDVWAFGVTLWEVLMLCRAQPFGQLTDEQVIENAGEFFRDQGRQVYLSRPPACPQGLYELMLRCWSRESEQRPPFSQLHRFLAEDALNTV

## Cc1ccc(CNC(=O)Cc2cccc(F)c2)cc1-c1ccc2[nH]ncc2c1 [Compound 3]
[1]
  IC50: 1000 nM

## Cc1cc2[nH]c(-c3cc(CN(C)C)cc(C(F)(F)F)c3)nc2cc1C#Cc1cncnc1 [Compound 4]
[2]
  IC50: 156 nM
[1]
  IC50: 278 nM

## O=C(CN1CCNC2(CCN(C(=O)c3ccc4[nH]ncc4c3)CC2)C1=O)Nc1cccc(F)c1 [Compound 5]
[1]
  activity against DDR1 kinase (in words): inactive

## Cc1ccc(NC(=O)CN2CCC2C(F)(F)F)cc1NC(=O)c1cnn2c1CCC2 (stereo not shown) [Compound 6]
[1]
  activity against DDR1 kinase (in words): inactive; also recorded: did not demonstrate any activity

## Cc1nc(Nc2ncc(C(=O)Nc3c(C)cccc3Cl)s2)cc(N2CCN(CCO)CC2)n1 [Dasatinib, dasatinib]
[3]; MRC-5
  concentration of maximum inhibition of α-actin expression: 10 µM

## O=C(O)Cc1ccccc1Nc1c(Cl)cccc1Cl [Diclofenac, diclofenac]
[4]; CD-1, mouse, microsomes, 1 h
  Remaining (*NCF = 60 min): 91.8%
  Remaining (T = 60 min): 50.2%
[5]; Beagle, dog, microsomes
  CLint scaled: < 13.8 mL/min/kg
[5]; Beagle, dog, microsomes, 1 h
  Remaining (*NCF = 60 min): 96.9%
  Remaining (T = 60 min): 85.7%
[5]; SD, rat, microsomes
  CLint scaled: 106 mL/min/kg
[5]; SD, rat, microsomes, 1 h
  Remaining (*NCF = 60 min): 89.8%
  Remaining (T = 60 min): 17.5%
[5]; human, microsomes
  CLint scaled: 117 mL/min/kg
[5]; human, microsomes, 1 h
  Remaining (*NCF = 60 min): 87.9%

## Cc1cccc(-c2[nH]c(C(C)(C)C)nc2-c2ccc3nccnc3c2)n1 [SB-525334, reference compound]
[6]
  effect on α-actin expression: strongly inhibited
[7]
  effect on collagen α1 expression: strongly inhibited
[8]; 0.5 μM
  effect on CTGF expression: no effect
[8]; 10 μM
  reduction of CTGF expression: 1.5 fold
[3]; 0.5 μM, compared to TGF+DMSO stimulation
  reduction in α-actin expression level: 2 fold
[3]; MRC-5
  concentration of maximum inhibition of α-actin expression: 10 µM
  dose dependence of effect on α-actin expression: Unclear dose-dependent effect

## C[C@]12CC[C@H]3[C@@H](CCC4=CC(=O)CC[C@@]43C)[C@@H]1CC[C@@H]2O [Testosterone, testosterone]
[4]; CD-1, mouse, microsomes
  CLint scaled: 1620 mL/min/kg
  half-life: 3.4 min
[4]; MLM 0.5, no co-factor
  Remaining (*NCF = 60 min): 75.4%
[4]; MLM 0.5, with NADPH
  Remaining (T = 60 min): 0.0%
[5]; Beagle, dog, microsomes
  CLint scaled: 114 mL/min/kg
[5]; DLM 0.5, no co-factor
  Remaining (*NCF = 60 min): 88.6%
[5]; DLM 0.5, with NADPH
  Remaining (T = 60 min): 9.5%
[5]; HLM 0.5, no co-factor
  Remaining (*NCF = 60 min): 82.4%
[5]; HLM 0.5, with NADPH
  Remaining (T = 60 min): 6.9%
[5]; HLM 0.5, with NADPH, listed as testosterone
  Remaining (T = 60 min): 6.9%
[5]; RLM 0.5, no co-factor
  Remaining (*NCF = 60 min): 86.8%
[5]; RLM 0.5, with NADPH
  Remaining (T = 60 min): 0.0%
[5]; SD, rat, microsomes
  CLint scaled: 2360 mL/min/kg
[5]; human, microsomes
  CLint scaled: 79.7 mL/min/kg
